Source: the NIST ThermoML archive (doi:10.1016/j.jct.2012.07.027)
“And” between values parts separate entries of the source, which are not always exact repeats. Equal entries are not always repeated. ± gives the expanded uncertainty stated by the source.

What was measured:
[1] = Molar enthalpy of transition or fusion; conditions: Crystal; DSC
[2] = for vapor or sublimation pressure: Closed cell (Static) method; for Normal melting temperature: DTA

COC(=O)c1ccc(Br)cc1 [methyl 4-bromobenzoate]
Conditions	Molar enthalpy of transition or fusion [kcal/mol]
[1]	6.17 ± 0.167

[2]
Conditions	vapor or sublimation pressure [kPa]
293.31 K, Crystal	0.00042 ± 0.0001
295.32 K, Crystal	0.00054 ± 0.0001
297.3 K, Crystal	0.00068 ± 0.00011
299.26 K, Crystal	0.00087 ± 0.00011
301.24 K, Crystal	0.00109 ± 0.00011
303.23 K, Crystal	0.00139 ± 0.00012
305.21 K, Crystal	0.00173 ± 0.00012
307.22 K, Crystal	0.0022 ± 0.00014
309.17 K, Crystal	0.00277 ± 0.00015
311.2 K, Crystal	0.00345 ± 0.00017
313.13 K, Crystal	0.00422 ± 0.0002
315.14 K, Crystal	0.00523 ± 0.00023
317.13 K, Crystal	0.00651 ± 0.00028
319.04 K, Crystal	0.00797 ± 0.00033
321.09 K, Crystal	0.00985 ± 0.0004
323.08 K, Crystal	0.0121 ± 0.00049
325.13 K, Crystal	0.01501 ± 0.00055
327 K, Crystal	0.01789 ± 0.00059
329.05 K, Crystal	0.02213 ± 0.00066
331.03 K, Crystal	0.02686 ± 0.00073
333 K, Crystal	0.0324 ± 0.00081
335.03 K, Crystal	0.03924 ± 0.00092
336.96 K, Crystal	0.04713 ± 0.001
338.94 K, Crystal	0.05664 ± 0.0012
340.91 K, Crystal	0.0673 ± 0.0014
342.9 K, Crystal	0.0811 ± 0.0016
344.79 K, Crystal	0.09642 ± 0.0018
346.85 K, Crystal	0.1156 ± 0.0021
348.81 K, Crystal	0.1363 ± 0.0021
354.73 K, Liquid	0.2096 ± 0.0027
356.68 K, Liquid	0.233 ± 0.0029
358.69 K, Liquid	0.259 ± 0.0032
360.68 K, Liquid	0.2932 ± 0.0034
362.63 K, Liquid	0.3282 ± 0.0037
364.63 K, Liquid	0.365 ± 0.0041
366.59 K, Liquid	0.4053 ± 0.0044
368.56 K, Liquid	0.4511 ± 0.0048
370.53 K, Liquid	0.5029 ± 0.0053
372.52 K, Liquid	0.5539 ± 0.0057
374.48 K, Liquid	0.6187 ± 0.0062
376.42 K, Liquid	0.6825 ± 0.0068
378.43 K, Liquid	0.752 ± 0.0074

Conditions	Normal melting temperature [°C]
[2], Crystal	78.07 ± 0.42

COC(=O)c1ccc(Cl)cc1 [methyl 4-chlorobenzoate]
Conditions	Molar enthalpy of transition or fusion [kcal/mol]
[1]	5.09 ± 0.143

[2]
Conditions	vapor or sublimation pressure [kPa]
276.44 K, Crystal	0.00043 ± 0.0001
278.37 K, Crystal	0.00055 ± 0.0001
280.36 K, Crystal	0.00071 ± 0.0001
282.35 K, Crystal	0.00092 ± 0.0001
284.34 K, Crystal	0.00118 ± 0.00011
285.3 K, Liquid	0.00301 ± 0.00015
286.32 K, Crystal	0.00148 ± 0.00011
287.31 K, Liquid	0.00363 ± 0.00017
288.29 K, Crystal	0.00191 ± 0.00012
289.27 K, Liquid	0.00436 ± 0.0002
290.31 K, Crystal	0.00242 ± 0.00014
291.28 K, Liquid	0.0052 ± 0.00023
292.3 K, Crystal	0.00308 ± 0.00016
293.26 K, Liquid	0.00618 ± 0.00026
294.26 K, Crystal	0.00389 ± 0.00018
295.27 K, Liquid	0.00739 ± 0.00031
296.29 K, Crystal	0.00489 ± 0.00022
297.26 K, Liquid	0.00872 ± 0.00036
298.24 K, Crystal	0.00611 ± 0.00026
299.23 K, Liquid	0.01031 ± 0.00042
300.23 K, Crystal	0.00765 ± 0.00032
301.21 K, Liquid	0.01212 ± 0.00048
302.21 K, Crystal	0.00956 ± 0.00039
303.18 K, Liquid	0.01428 ± 0.00053
304.18 K, Crystal	0.01181 ± 0.00047
305.19 K, Liquid	0.01678 ± 0.00057
306.12 K, Crystal	0.01452 ± 0.00054
307.17 K, Liquid	0.01959 ± 0.00061
308.18 K, Crystal	0.01815 ± 0.00059
309.12 K, Liquid	0.02291 ± 0.00067
310.15 K, Crystal	0.0222 ± 0.00066
311.13 K, Liquid	0.02675 ± 0.00073
312.09 K, Crystal	0.02704 ± 0.00073
313.12 K, Liquid	0.0311 ± 0.00079
314.62 K, Liquid	0.03483 ± 0.00085
316.12 K, Liquid	0.03877 ± 0.00091
318.07 K, Liquid	0.0448 ± 0.001
318.88 K, Liquid	0.04755 ± 0.001
321.14 K, Liquid	0.05585 ± 0.0012
322.9 K, Liquid	0.06343 ± 0.0013
324.86 K, Liquid	0.07327 ± 0.0014
327.05 K, Liquid	0.084 ± 0.0016
329.03 K, Liquid	0.0959 ± 0.0018
331 K, Liquid	0.1092 ± 0.002
332.98 K, Liquid	0.125 ± 0.0022
333.97 K, Liquid	0.1325 ± 0.002

Conditions	Normal melting temperature [°C]
[2], Crystal	41.98 ± 0.44

COC(=O)c1ccc(F)cc1 [methyl p-fluorobenzoate]
Conditions	Molar enthalpy of transition or fusion [kcal/mol]
[1]	3.68 ± 0.12

[2], Liquid
Conditions	vapor or sublimation pressure
268.58 K	0.00431 ± 0.00028 kPa
270.54 K	0.00518 ± 0.0003 kPa
272.52 K	0.00628 ± 0.00034 kPa
274.49 K	0.00754 ± 0.00037 kPa
276.46 K	0.00902 ± 0.00041 kPa
278.44 K	0.01071 ± 0.00047 kPa
280.4 K	0.01279 ± 0.00053 kPa
281.87 K	0.01451 ± 0.00056 kPa
283.38 K	0.0165 ± 0.00059 kPa
285.35 K	0.0195 ± 0.00064 kPa
287.34 K	0.02314 ± 0.00069 kPa
289.34 K	0.02719 ± 0.00075 kPa
291.34 K	0.0319 ± 0.00082 kPa
293.24 K	0.03702 ± 0.00089 kPa
295.27 K	0.04353 ± 0.00099 kPa
297.28 K	0.05103 ± 0.0011 kPa
299.22 K	0.05905 ± 0.0012 kPa
301.21 K	0.06815 ± 0.0014 kPa
303.17 K	0.07895 ± 0.0015 kPa
305.16 K	0.09121 ± 0.0017 kPa and 0.09107 ± 0.0017 kPa
307.18 K	0.1051 ± 0.0019 kPa
309.2 K	0.1209 ± 0.0022 kPa
311.15 K	0.1388 ± 0.0021 kPa
313.16 K	0.1594 ± 0.0023 kPa
315.12 K	0.1817 ± 0.0025 kPa
317.15 K	0.208 ± 0.0027 kPa
319.07 K	0.2349 ± 0.0029 kPa
321.11 K	0.2685 ± 0.0032 kPa
323.09 K	0.3015 ± 0.0035 kPa
325.07 K	0.3433 ± 0.0039 kPa
327.04 K	0.3848 ± 0.0043 kPa
329.03 K	0.4342 ± 0.0047 kPa
331 K	0.4875 ± 0.0051 kPa
332.99 K	0.549 ± 0.0057 kPa
334.97 K	0.6142 ± 0.0062 kPa
336.95 K	0.6904 ± 0.0069 kPa
338.92 K	0.7681 ± 0.0076 kPa
340.9 K	0.8612 ± 0.0084 kPa and 0.8627 ± 0.0084 kPa
342.87 K	0.9546 ± 0.0092 kPa
344.85 K	1.061 ± 0.01 kPa

Conditions	Normal melting temperature [°C]
[2], Crystal	0.6 ± 0.39

COC(=O)c1ccc(I)cc1 [methyl p-iodobenzoate]
Conditions	Molar enthalpy of transition or fusion [kcal/mol]
[1]	7.1 ± 0.191

[2]
Conditions	vapor or sublimation pressure [kPa]
313.11 K, Crystal	0.00044 ± 0.00011
315.03 K, Crystal	0.00054 ± 0.00011
317.12 K, Crystal	0.00069 ± 0.00011
319.05 K, Crystal	0.00087 ± 0.00011
321.04 K, Crystal	0.00108 ± 0.00012
323.04 K, Crystal	0.00134 ± 0.00012
325 K, Crystal	0.00165 ± 0.00013
326.97 K, Crystal	0.00206 ± 0.00014
329 K, Crystal	0.00253 ± 0.00015
330.93 K, Crystal	0.00315 ± 0.00017
332.89 K, Crystal	0.00387 ± 0.00019
334.91 K, Crystal	0.00478 ± 0.00022
336.94 K, Crystal	0.00583 ± 0.00026
342.8 K, Crystal	0.01054 ± 0.00043
346.74 K, Crystal	0.01524 ± 0.00055
350.73 K, Crystal	0.02236 ± 0.00066
352.75 K, Crystal	0.02707 ± 0.00073
356.66 K, Crystal	0.03886 ± 0.00091
358.67 K, Crystal	0.04652 ± 0.001
360.6 K, Crystal	0.05489 ± 0.0012
362.63 K, Crystal	0.06557 ± 0.0013
364.61 K, Crystal	0.07801 ± 0.0015
366.58 K, Crystal	0.09145 ± 0.0017
368.45 K, Crystal	0.1085 ± 0.002
370.54 K, Crystal	0.127 ± 0.0023
372.47 K, Crystal	0.1479 ± 0.0022
374.46 K, Crystal	0.1734 ± 0.0024
376.44 K, Crystal	0.2047 ± 0.0027
378.41 K, Crystal	0.2394 ± 0.003
380.38 K, Crystal	0.2786 ± 0.0033
386.32 K, Liquid	0.4305 ± 0.0047
388.2 K, Liquid	0.4717 ± 0.005
390.26 K, Liquid	0.5231 ± 0.0054
391.24 K, Liquid	0.5484 ± 0.0057
392.21 K, Liquid	0.5758 ± 0.0059
394.18 K, Liquid	0.6343 ± 0.0064
396.15 K, Liquid	0.698 ± 0.0069
398.14 K, Liquid	0.7666 ± 0.0075
400.1 K, Liquid	0.8418 ± 0.0082
402.07 K, Liquid	0.9228 ± 0.0089
404.04 K, Liquid	1.011 ± 0.01
406.02 K, Liquid	1.106 ± 0.011

Conditions	Normal melting temperature [°C]
[2], Crystal	113.52 ± 0.39
